Target: PD-1/PD-L1 (Homo sapiens, UniProt Q9NZQ7)
Assay: TR-FRET PD-1/PD-L1 binding inhibition at the molecular level (free proteins)
Details: Tag1-PD-L1 and Tag2-PD-1 proteins, twelve concentrations from 200 nM, 2 hours at room temperature, read-out: FRET assay (IC50)
Method in brief: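 HTRF read-out at 665/620 nm after 2 h at room temperature. Detection used anti-Tag1 Eu cryptate plus anti-Tag2 XL665 antibodies. Tagged PD-L1 and PD-1 proteins were pre-mixed with compound across twelve […] 1:2 dilutions starting at 200 nM.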

Chain of PD-1/PD-L1 (Q9NZQ7 19-238 limits assumed): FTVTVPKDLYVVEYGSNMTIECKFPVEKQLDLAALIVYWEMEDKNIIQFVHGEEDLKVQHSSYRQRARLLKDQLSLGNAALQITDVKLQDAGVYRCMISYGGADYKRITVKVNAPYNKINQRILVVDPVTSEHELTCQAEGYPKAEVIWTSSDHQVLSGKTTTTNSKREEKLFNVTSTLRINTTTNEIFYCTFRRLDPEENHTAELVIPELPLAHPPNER

SMILES | IC50 [nM]
O=C(Nc1cccc(-c2cccc(Nc3nccc4nccnc34)c2Cl)c1Cl)c1cc2n(n1)CCC[C@H]2N1CCC(C(=O)O)CC1 [Compound 256, (R)-1-(2-((2,2'-dichloro-3'-(pyrido[3,4-b]pyrazin-5-ylamino)-[1,1'-biphenyl]-3-yl)carbamoyl)-4,5,6,7-tetrahydropyrazolo[1,5-a]pyridin-4-yl)piperidine-4-carboxylic acid] | 10 to 100
O=C(Nc1cccc(-c2cccc(Nc3nccc4nccnc34)c2Cl)c1Cl)c1cc2n(n1)CCC[C@@H]2N1CCC(C(=O)O)CC1 [Compound 257, (S)-1-(2-((2,2'-dichloro-3'-(pyrido[3,4-b]pyrazin-5-ylamino)-[1,1'-biphenyl]-3-yl)carbamoyl)-4,5,6,7-tetrahydropyrazolo[1,5-a]pyridin-4-yl)piperidine-4-carboxylic acid] | 10 to 100
CC(C)(N[C@H]1CCCn2nc(C(=O)Nc3cccc(-c4cccc(Nc5nc(C(F)F)nc6cc(CN7CC[C@@H](O)C7)cnc56)c4Cl)c3Cl)cc21)C(=O)O [Compound 258, 2-(((S)-2-((2,2'-dichloro-3'-((2-(difluoromethyl)-7-(((R)-3-hydroxypyrrolidin-1-yl)methyl)pyrido[3,2-d]pyrimidin-4-yl)amino)-[1,1'-biphenyl]-3-yl)carbamoyl)-4,5,6,7-tetrahydropyrazolo[1,5-a]pyridin-4-yl)amino)-2-methylpropanoic acid] | 10 to 100
CC(C)(N[C@@H]1CCCn2nc(C(=O)Nc3cccc(-c4cccc(Nc5nc(C(F)F)nc6cc(CN7CC[C@@H](O)C7)cnc56)c4Cl)c3Cl)cc21)C(=O)O [Compound 259, 2-(((R)-2-((2,2'-dichloro-3'-((2-(difluoromethyl)-7-(((R)-3-hydroxypyrrolidin-1-yl)methyl)pyrido[3,2-d]pyrimidin-4-yl)amino)-[1,1'-biphenyl]-3-yl)carbamoyl)-4,5,6,7-tetrahydropyrazolo[1,5-a]pyridin-4-yl)amino)-2-methylpropanoic acid] | 10 to 100
CC(C)(N[C@@H]1CCCn2nc(C(=O)Nc3cccc(-c4cccc(Nc5nccc6nccnc56)c4Cl)c3Cl)cc21)C(=O)O [Compound 259-1, (R)-2-((2-((2,2'-dichloro-3'-(pyrido[3,4-b]pyrazin-5-ylamino)-[1,1'-biphenyl]-3-yl)carbamoyl)-4,5,6,7-tetrahydropyrazolo[1,5-a]pyridin-4-yl)amino)-2-methylpropanoic acid] | 10 to 100
CC(C)(N[C@H]1CCCn2nc(C(=O)Nc3cccc(-c4cccc(Nc5nccc6nccnc56)c4Cl)c3Cl)cc21)C(=O)O [Compound 260, (S)-2-((2-((2,2'-dichloro-3'-(pyrido[3,4-b]pyrazin-5-ylamino)-[1,1'-biphenyl]-3-yl)carbamoyl)-4,5,6,7-tetrahydropyrazolo[1,5-a]pyridin-4-yl)amino)-2-methylpropanoic acid] | 10 to 100
O=C(Nc1cccc(-c2cccc(Nc3nc(C(F)F)nc4cc(CN5CC[C@@H](O)C5)cnc34)c2Cl)c1Cl)c1cc2n(n1)CCC[C@@H]2N1CC(C(=O)O)C1 [Compound 261, 1-((S)-2-((2,2'-dichloro-3'-((2-(difluoromethyl)-7-(((R)-3-hydroxypyrrolidin-1-yl)methyl)pyrido[3,2-d]pyrimidin-4-yl)amino)-[1,1'-biphenyl]-3-yl)carbamoyl)-4,5,6,7-tetrahydropyrazolo[1,5-a]pyridin-4-yl)azetidine-3-carboxylic acid] | < 10
O=C(Nc1cccc(-c2cccc(Nc3nccc4nccnc34)c2Cl)c1Cl)c1cc2n(n1)CCC[C@H]2N1CC(C(=O)O)C1 [Compound 263, (R)-1-(2-((2,2'-dichloro-3'-(pyrido[3,4-b]pyrazin-5-ylamino)-[1,1'-biphenyl]-3-yl)carbamoyl)-4,5,6,7-tetrahydropyrazolo[1,5-a]pyridin-4-yl)azetidine-3-carboxylic acid] | < 10
O=C(Nc1cccc(-c2cccc(Nc3nccc4nccnc34)c2Cl)c1Cl)c1cc2n(n1)CCC[C@@H]2N1CC(C(=O)O)C1 [Compound 264, (S)-1-(2-((2,2'-dichloro-3'-(pyrido[3,4-b]pyrazin-5-ylamino)-[1,1'-biphenyl]-3-yl)carbamoyl)-4,5,6,7-tetrahydropyrazolo[1,5-a]pyridin-4-yl)azetidine-3-carboxylic acid] | < 10
Cc1c(NC(=O)c2ccc(CN3CC[C@@H](O)C3)cn2)cccc1-c1cccc(NC(=O)c2cc3n(n2)CCC[C@@H]3N2CC(C(=O)O)C2)c1C [Compound 265, 1-((S)-2-((3'-(5-(((R)-3-hydroxypyrrolidin-1-yl)methyl)picolinamido)-2,2'-dimethyl-[1,1'-biphenyl]-3-yl)carbamoyl)-4,5,6,7-tetrahydropyrazolo[1,5-a]pyridin-4-yl)azetidine-3-carboxylic acid] | < 10
Cc1c(NC(=O)c2cc3n(n2)CCC[C@@H]3N2CCC(C(=O)O)CC2)cccc1-c1cccc(Nc2nc(C(F)F)nc3cc(CN4CC[C@@H](O)C4)cnc23)c1C [Compound 267, 1-((S)-2-((3'-((2-(difluoromethyl)-7-(((R)-3-hydroxypyrrolidin-1-yl)methyl)pyrido[3,2-d]pyrimidin-4-yl)amino)-2,2'-dimethyl-[1,1'-biphenyl]-3-yl)carbamoyl)-4,5,6,7-tetrahydropyrazolo[1,5-a]pyridin-4-yl)piperidine-4-carboxylic acid] | < 10
Cc1c(NC(=O)c2cc3n(n2)CCC[C@H]3N2CCC(C(=O)O)CC2)cccc1-c1cccc(Nc2nc(C(F)F)nc3cc(CN4CC[C@@H](O)C4)cnc23)c1C [Compound 268, 1-((R)-2-((3'-((2-(difluoromethyl)-7-(((R)-3-hydroxypyrrolidin-1-yl)methyl)pyrido[3,2-d]pyrimidin-4-yl)amino)-2,2'-dimethyl-[1,1'-biphenyl]-3-yl)carbamoyl)-4,5,6,7-tetrahydropyrazolo[1,5-a]pyridin-4-yl)piperidine-4-carboxylic acid] | 10 to 100
O=C(Nc1cccc(-c2cccc(Nc3nc(C(F)F)nc4cc(CN5CC(F)C5)cnc34)c2Cl)c1Cl)c1cc2n(n1)CCC[C@@H]2N1CCC(O)CC1 [Compound 269, (S)-N-(2,2'-dichloro-3'-((2-(difluoromethyl)-7-((3-fluoroazetidin-1-yl)methyl)pyrido[3,2-d]pyrimidin-4-yl)amino)-[1,1'-biphenyl]-3-yl)-4-(4-hydroxypiperidin-1-yl)-4,5,6,7-tetrahydropyrazolo[1,5-a]pyridine-2-carboxamide] | 10 to 100
O=C(Nc1cccc(-c2cccc(Nc3nc(C(F)F)nc4cc(CN5CC(F)C5)cnc34)c2Cl)c1Cl)c1cc2n(n1)CCC[C@H]2N1CCC(O)CC1 [Compound 270, (R)-N-(2,2'-dichloro-3'-((2-(difluoromethyl)-7-((3-fluoroazetidin-1-yl)methyl)pyrido[3,2-d]pyrimidin-4-yl)amino)-[1,1'-biphenyl]-3-yl)-4-(4-hydroxypiperidin-1-yl)-4,5,6,7-tetrahydropyrazolo[1,5-a]pyridine-2-carboxamide] | 10 to 100
O=C(Nc1cccc(-c2cccc(Nc3nc(C(F)F)nc4cc(CN5CC(F)(F)C5)cnc34)c2Cl)c1Cl)c1cc2n(n1)CCC[C@@H]2N1CCC(O)CC1 [Compound 271, (S)-N-(2,2'-dichloro-3'-((7-((3,3-difluoroazetidin-1-yl)methyl)-2-(difluoromethyl)pyrido[3,2-d]pyrimidin-4-yl)amino)-[1,1'-biphenyl]-3-yl)-4-(4-hydroxypiperidin-1-yl)-4,5,6,7-tetrahydropyrazolo[1,5-a]pyridine-2-carboxamide] | 10 to 100
O=C(Nc1cccc(-c2cccc(Nc3nc(C(F)F)nc4cc(CN5CC(F)(F)C5)cnc34)c2Cl)c1Cl)c1cc2n(n1)CCC[C@H]2N1CCC(O)CC1 [Compound 272, (R)-N-(2,2'-dichloro-3'-((7-((3,3-difluoroazetidin-1-yl)methyl)-2-(difluoromethyl)pyrido[3,2-d]pyrimidin-4-yl)amino)-[1,1'-biphenyl]-3-yl)-4-(4-hydroxypiperidin-1-yl)-4,5,6,7-tetrahydropyrazolo[1,5-a]pyridine-2-carboxamide] | 10 to 100
O=C(Nc1cccc(-c2cccc(Nc3nc(C(F)(F)F)nc4cccnc34)c2Cl)c1Cl)c1cc2n(n1)CCC[C@@H]2N1CCC(C(=O)O)CC1 [Compound 273, (S)-1-(2-((2,2'-dichloro-3'-((2-(trifluoromethyl)pyrido[3,2-d]pyrimidin-4-yl)amino)-[1,1'-biphenyl]-3-yl)carbamoyl)-4,5,6,7-tetrahydropyrazolo[1,5-a]pyridin-4-yl)piperidine-4-carboxylic acid] | 10 to 100
O=C(Nc1cccc(-c2cccc(Nc3nc(C(F)(F)F)nc4cccnc34)c2Cl)c1Cl)c1cc2n(n1)CCC[C@H]2N1CCC(C(=O)O)CC1 [Compound 274, (R)-1-(2-((2,2'-dichloro-3'-((2-(trifluoromethyl)pyrido[3,2-d]pyrimidin-4-yl)amino)-[1,1'-biphenyl]-3-yl)carbamoyl)-4,5,6,7-tetrahydropyrazolo[1,5-a]pyridin-4-yl)piperidine-4-carboxylic acid] | 10 to 100
CC(C)(N[C@H]1CCCn2nc(C(=O)Nc3cccc(-c4cccc(Nc5nc(C(F)(F)F)nc6cccnc56)c4Cl)c3Cl)cc21)C(=O)O [Compound 275, (S)-2-((2-((2,2'-dichloro-3'-((2-(trifluoromethyl)pyrido[3,2-d]pyrimidin-4-yl)amino)-[1,1'-biphenyl]-3-yl)carbamoyl)-4,5,6,7-tetrahydropyrazolo[1,5-a]pyridin-4-yl)amino)-2-methylpropanoic acid] | 10 to 100
CC(C)(N[C@@H]1CCCn2nc(C(=O)Nc3cccc(-c4cccc(Nc5nc(C(F)(F)F)nc6cccnc56)c4Cl)c3Cl)cc21)C(=O)O [Compound 276, (R)-2-((2-((2,2'-dichloro-3'-((2-(trifluoromethyl)pyrido[3,2-d]pyrimidin-4-yl)amino)-[1,1'-biphenyl]-3-yl)carbamoyl)-4,5,6,7-tetrahydropyrazolo[1,5-a]pyridin-4-yl)amino)-2-methylpropanoic acid] | < 10

From patent publication EP4755888A1 (ILAb Co., Ltd., priority 2023, dated 2025)
